Laboratory results: patent publication US12251427B2, “Reduced oxygen carriers and their use for the treatment of carboxyhemoglobinemia” (priority 2016, dated 2025)

How the values were obtained:
[1] = cited from earlier work; for Kd: CO; for kon: rate of CO binding; for koff: rate of CO dissociation
[2] = system: mice exposed to 30,000 ppm (3%) CO gas; test: Severe CO poisoning mouse model: survival and hemodynamics; type: in vivo; conditions: for effect on hemodynamic collapse (heart rate, mean arterial blood pressure) induced by CO: infusion after 4.5 minutes of 3% CO; for mortality: 3% CO 4.5 minutes
Procedure: To establish a model for cardiovascular and mortality end points, tracheally intubated, ventilated, anesthetized mice were exposed to 30,000 ppm (3%) CO gas, with 21% oxygen and 1.5% isoflurane for 4.5 minutes. Mice were surgically instrumented with placement of jugular venous (for infusion of drug) and carotid arterial (for blood pressure and heart rate monitoring) catheters. In this model, there was 88.2% (15/17) mortality in a group infused with 300 μL of PBS post exposure, while all mice that received an infusion of 11 mM myoglobin survived (0% mortality; n=5). Survival of mice infused with myoglobin was due to the reversal in hemodynamic collapse and bradycardia induced by CO (FIG. 5).
(§1) Tracheally intubated, ventilated, anesthetized mice were exposed to 30,000 ppm (3%) CO gas, with 21% oxygen and 1.5% isoflurane for 4.5 minutes. Mice were surgically instrumented with placement of jugular venous (for infusion of drug) and carotid arterial (for blood pressure and heart rate monitoring) catheters. In this model, all mice that received PEG-Hb (n=3) survived. The concentration infused was 10 mM at approximately 200 to 250 microliters volume.

[3] = Safety of oxygen carriers in healthy mice; type: in vivo; conditions: for tolerability of infusion: retro-orbital injection, 8-12 mM, observed for 48 hours; for blood chemistries: serum at 48 hours; for hematology profile: whole blood at 48 hours
Procedure: Healthy mice were anesthetized with 3% isoflurane gas and myoglobin and hemoglobin were injected into the retro-orbital space. […] At 48 hours, the animals were sacrificed, their serum was analyzed for blood chemistries and whole blood was tested for complete blood count.

[4] = system: isolated liver mitochondria; test: Mitochondrial respiration, Clark-type oxygen electrode, isolated liver mitochondria; design: species or system rat; conditions: for reduction of respiration: tissue not specified
Procedure: Mitochondrial respiration was measured before and after CO gas exposure in a Clark-type oxygen electrode respirometry system. The effects of infusion of both reduced hemoglobin and myoglobin were evaluated. Fresh liver was collected from a normal rat, and mitochondria were isolated through differential centrifugation. For left ventricle (LV) tissue, fresh LV was collected from a normal rat and then homogenized. The resulting mitochondria and LV tissue was put into the Clark-type electrode air tight reaction chamber, then substrates (succinate (mitochondria) or malate and pyruvate (LV) and ADP) were added. Mitochondria respired to 0% oxygen and then the system was reoxygenated with a pipetted injection of room air. Mitochondria respired back down to the desired 02 concentration. At this point, CO was added, either in gas form or saturated PBS solution. The system was then reoxygenated, and respiration occurred down to 0%. These rates of respiration were compared with pre-CO exposure. The reason for the first reoxygenation step was to more equally compare rates of mitochondria that have experienced some hypoxia, which can damage their function. After this was completed, CO scavenging agents were added, the system was reoxygenated and this final rate of respiration was compared both to pre-CO and post-CO respiration.
CO was then infused, the system was reoxygenated, and rates of respiration were compared. After respiration to 0% 02, myoglobin was infused, the system was reoxygenated and the rates were compared.
CO poisoning has long term effects on patients, and one theory is the poisoning of mitochondria leads to generation of increased reactive oxygen species (ROS) through the inhibition of complex IV of the electron transport chain. A model to measure the amount of inhibition produced by CO exposure and quantify it through respiratory rates was developed. In a Clark electrode, the oxygen respiration of isolated mitochondria from rat livers and left ventricle (LV) homogenate was measured, with the addition of the substrates succinate and ADP to measure maximal respiration. […] This effect was stronger in more hypoxic states, consistent with the known competition between CO and O2 for binding at the heme in cytochrome c oxidase (62% reduction in hypoxia versus ˜50% in normoxia).

HbCO [5] = test: Severe CO poisoning mouse model: HbCO level by spectrometry; type: in vivo, mice
Procedure: To establish a model for cardiovascular and mortality end points, tracheally intubated, ventilated, anesthetized mice were exposed to 30,000 ppm (3%) CO gas, with 21% oxygen and 1.5% isoflurane for 4.5 minutes. Mice were surgically instrumented with placement of jugular venous (for infusion of drug) and carotid arterial (for blood pressure and heart rate monitoring) catheters.
(§2) Through the jugular venous catheter, the HbCO level was sampled using spectrometry. […] Mouse half-life for CO is much faster than for humans.
as §1, with “In this model, all mice that received PEG-Hb (n=3) survived.” left out
as §2

LV homogenate = test: Cardiac tissue respiration, Clark-type oxygen electrode, LV homogenate; design: species or system rat
Procedure: Mitochondrial respiration was measured before and after CO gas exposure in a Clark-type oxygen electrode respirometry system. The effects of infusion of both reduced hemoglobin and myoglobin were evaluated. Fresh liver was collected from a normal rat, and mitochondria were isolated through differential centrifugation. For left ventricle (LV) tissue, fresh LV was collected from a normal rat and then homogenized. The resulting mitochondria and LV tissue was put into the Clark-type electrode air tight reaction chamber, then substrates (succinate (mitochondria) or malate and pyruvate (LV) and ADP) were added. Mitochondria respired to 0% oxygen and then the system was reoxygenated with a pipetted injection of room air. Mitochondria respired back down to the desired 02 concentration. […]
CO poisoning has long term effects on patients, and one theory is the poisoning of mitochondria leads to generation of increased reactive oxygen species (ROS) through the inhibition of complex IV of the electron transport chain. A model to measure the amount of inhibition produced by CO exposure and quantify it through respiratory rates was developed. In a Clark electrode, the oxygen respiration of isolated mitochondria from rat livers and left ventricle (LV) homogenate was measured, with the addition of the substrates succinate and ADP to measure maximal respiration. […]

HbCO [6] = test: In vitro model of CO poisoning: CO scavenging from HbCO / carboxylated RBCs; type: biochemical
Procedure: FIGS. 4A-4C are graphs showing the in vitro binding of CO from hemoglobin by wild type equine myoglobin. PBS or myoglobin (100 μL) was infused into a solution containing carboxylated red blood cells in the presence of 5 mM sodium dithionite at 37° C. Samples were taken from the reaction mixture at several time points and the RBCs were separated from the supernatant (containing the Mb) by centrifugation. The amount of HbCO/MbCO in each fraction was determined by UV-vis spectroscopy. (FIG. 4A) Carboxylated RBCs mixed with PBS. (FIG. 4B and FIG. 4C) Two sample experiments where different amounts of carboxylated RBCs were mixed with Mb. […]
Oxygenated or deoxygenated myoglobin (Mb) was prepared following the same procedure as that described for the experiments with pure Hb. In some experiments, after initiating the reaction, red cells were separated from Mb to measure absorbance spectra. […] Hb absorbance in the lysed RBC solution was measured with the Cary 50 spectrophotometer in a 1 cm path length cuvette. This cycle was repeated six times, each 1.5-5 minutes, giving six absorbance measurements of the Hb. […] The time when absorbance of hemoglobin was measured in the reaction was assumed to be the time elapsed after injection of Mb to 15 or 30 seconds after the start of centrifugation (for 30 or 60 second centrifugation durations, respectively). […]

Human Hb (beta subunit, T-state): human hemoglobin beta subunit, T-state
Kd [1]: 3.8 µM
kon [1]: 50000 M⁻¹ s⁻¹
koff [1]: 0.19 s⁻¹

Human Hb (alpha subunit, T-state): human hemoglobin alpha subunit, T-state
Kd [1]: 1.75 µM
kon [1]: 120000 M⁻¹ s⁻¹
koff [1]: 0.21 s⁻¹

Human Hb (beta subunit, R-state): human hemoglobin beta subunit, R-state
Kd [1]: 0.000946 µM
kon [1]: 7.4e+06 M⁻¹ s⁻¹
koff [1]: 0.007 s⁻¹

hemoglobin: hemoglobin, natural oxygen carrier, infused in reduced (deoxy) form as CO scavenger
survival ([2]; infused with <4 mM): died
survival ([2]; infused with ≥4 mM): all survived
effect on hemodynamic collapse (heart rate, mean arterial blood pressure) induced by CO [2]: reversed
tolerability of infusion [3]: well tolerated
blood chemistries [3]: normal kidney and liver function
hematology profile [3]: only a slight decline in platelets
increase of respiration from the CO inhibited rate ([4]; 0.5 equimolar, after CO gas): 95%

Human Hb (alpha subunit, R-state): human hemoglobin alpha subunit, R-state
Kd [1]: 0.002 µM
kon [1]: 6e+06 M⁻¹ s⁻¹
koff [1]: 0.012 s⁻¹

PEG-Hb: surface conjugation of polyethylene glycol to human hemoglobin; artificial oxygen carrier
survival ([2]; 10 mM, approximately 200 to 250 microliters, n=3): survived
effect on hemodynamic collapse (heart rate, mean arterial blood pressure) induced by CO [2]: restored
HbCO level (HbCO [5]; five minutes after infusion, Example 9): 66%
HbCO level (HbCO [5]; ten minutes after treatment, Example 9): 62%

[C-]#[O+] [CO, carbon monoxide]
decrease of respiration from pre-CO (maximal) respiration ([4]; CO gas versus room air): 60.5%
reduction of respiration ([4]; hypoxia): 62%
reduction of respiration ([4]; normoxia): ~50%
decrease of respiration from pre-CO (maximal) respiration (LV homogenate; CO gas versus air): 75.6%

B1: Equine Myoglobin: wild type equine myoglobin, natural oxygen carrier, used in reduced (deoxy) form as CO scavenger (protein, UniProt P68082 2-154, looked up)
Myoglobin: GLSDGEWQQVLNVWGKVEADIAGHGQEVLIRLFTGHPETLEKFDKFKHLKTEAEMKASEDLKKHGTVVLTALGGILKKKGHHEAELKPLAQSHATKHKIPIKYLEFISDAIIHVLHSKHPGDFGADAQGAMTKALELFRNDIAAKYKELGFQG
modifications: deoxy form
notes: wild type equine myoglobin, natural oxygen carrier, used in reduced (deoxy) form as CO scavenger
HbCO reduced, CO bound by myoglobin (HbCO [6]; 100% HbCO, anaerobic, added in a 1:1 ratio): more than half
HbCO concentration reduced (HbCO [6]; added in deficit: 110.8 μM HbCO versus 85.3 μM deoxy-myoglobin): one third
survival ([2]; concentration greater than 11 mM, n=10): 100%
survival ([2]; concentrations less than 11 mM, n=4): 0%
concentration needed to reverse the hemodynamic collapse induced by severe CO poisoning ([2]; infused concentration): greater than 11 mM
effect on hemodynamic collapse (heart rate, mean arterial blood pressure) induced by CO [2]: reversal
effect on hemodynamic collapse (heart rate, mean arterial blood pressure) induced by CO ([2]; listed as reduced myoglobin): restoration
mortality ([2]; infusion of 11 mM, n=5): 0%
mortality ([2]; infusion of 300 μL of 11.5 mM reduced form): 0%
HbCO level (HbCO [5]; five minutes after infusion, Example 4): 65.04%
HbCO level (HbCO [5]; ten minutes after treatment, Example 4): 52.8%
tolerability of infusion [3]: well tolerated
blood chemistries [3]: normal kidney and liver function
hematology profile [3]: only a slight decline in platelets
increase of respiration from the CO inhibited rate (LV homogenate; 0.5 equimolar, after CO gas): 199%
affinity for CO relative to oxygen ([1]; CO versus O2): 60 fold
Kd [1]: 0.0688 µM
kon [1]: 510000 M⁻¹ s⁻¹
koff [1]: 0.035 s⁻¹
